Measured values from patent US20250171438A1 (Agios Pharmaceuticals, Inc., priority 2022, published 2025).

Target: T1, human PAH with the R408W mutation (Homo sapiens, UniProt P00439, R408W)
T1 construct: expressed in transfected cells
T1 sequence (P00439 1-452 R408W): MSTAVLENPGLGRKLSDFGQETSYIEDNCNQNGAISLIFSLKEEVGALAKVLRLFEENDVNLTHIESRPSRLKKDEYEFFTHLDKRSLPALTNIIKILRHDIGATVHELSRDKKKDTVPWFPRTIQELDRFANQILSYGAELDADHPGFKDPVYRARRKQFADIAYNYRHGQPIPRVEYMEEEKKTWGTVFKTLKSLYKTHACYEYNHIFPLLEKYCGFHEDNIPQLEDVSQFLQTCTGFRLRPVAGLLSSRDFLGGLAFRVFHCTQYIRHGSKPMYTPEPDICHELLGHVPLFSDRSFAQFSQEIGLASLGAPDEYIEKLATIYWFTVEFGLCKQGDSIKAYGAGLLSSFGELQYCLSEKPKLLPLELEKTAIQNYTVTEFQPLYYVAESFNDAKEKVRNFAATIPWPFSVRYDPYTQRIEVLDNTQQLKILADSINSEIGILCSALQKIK
Assay: Cell Based Phenylalanine Flux Assay
Details: A375 cells expressing human R408W PAH; 24 hrs compound incubation; 13C-Tyrosine by LC-MS; average where tested multiple times; read-out: AC50

Compound	AC50 [µM]
Cn1nccc1C(=O)N1CCc2[nH]cnc2[C@@H]1c1nc2ccccc2s1 [Example 1840, (R)-(4-(benzo[d]thiazol-2-yl)-6,7-dihydro-1H-imidazo[4,5-c]pyridin-5(4H)-yl)(1-methyl-1H-pyrazol-5-yl)methanone]	> 5
O=C(c1nnc(-c2cnn(C(F)F)c2)o1)N1CCc2[nH]cnc2[C@@H]1c1nc2ccccc2s1 [Example 1778, (R)-(4-(benzo[d]thiazol-2-yl)-6,7-dihydro-1H-imidazo[4,5-c]pyridin-5(4H)-yl)(5-(1-(difluoromethyl)-1H-pyrazol-4-yl)-1,3,4-oxadiazol-2-yl)methanone]	> 5
O=C(c1nnc(C2CC(F)(F)C2)o1)N1CCc2[nH]cnc2[C@H]1c1nc2c(F)cccc2s1 [Example 1892, (S)-(5-(3,3-difluorocyclobutyl)-1,3,4-oxadiazol-2-yl)(4-(4-fluorobenzo[d]thiazol-2-yl)-6,7-dihydro-1H-imidazo[4,5-c]pyridin-5(4H)-yl)methanone]	0.5 to 1
O=C(CCC1CC1)N1CCc2[nH]cnc2[C@H]1c1nc2cccc(F)c2s1 [Example 1133, (S)-3-cyclopropyl-1-(4-(7-fluorobenzo[d]thiazol-2-yl)-6,7-dihydro-1H-imidazo[4,5-c]pyridin-5(4H)-yl)propan-1-one]	0.5 to 1
O=C(c1oc(-c2ccccn2)nc1C(F)(F)F)N1CC2(CC2)c2[nH]cnc2[C@@H]1c1nc2ccccc2s1 [Example 1682, (R)-(4′-(benzo[d]thiazol-2-yl)spiro[cyclopropane-1,7′-imidazo[4,5-c]pyridin]-5′(1′H,4′H,6′H)-yl)(2-(pyridin-2-yl)-4-(trifluoromethyl)oxazol-5-yl)methanone]	1 to 5
O=C(c1cn(CC(F)(F)F)nc1C(F)F)N1CCc2[nH]cnc2[C@H]1c1nc2ccccc2s1 [Example 1985]	< 0.5
Cc1nc(CC2CC2)oc1C(=O)N1CCc2[nH]cnc2[C@H]1c1nc2ccccc2s1 [Example 1399]	< 0.5
Cc1c(C(=O)N2CCc3[nH]cnc3[C@H]2c2nc3c(F)cccc3s2)cnn1CC(F)(F)F [Example 1919, (S)-(4-(4-fluorobenzo[d]thiazol-2-yl)-6,7-dihydro-1H-imidazo[4,5-c]pyridin-5(4H)-yl)(5-methyl-1-(2,2,2-trifluoroethyl)-1H-pyrazol-4-yl)methanone]	0.5 to 1
O=C(c1ccnn1C(F)F)N1CCc2[nH]cnc2[C@H]1c1nc2ccccc2s1 [Example 1817]	< 0.5
O=C(CC1CC1)N1CCc2[nH]cnc2[C@@H]1c1nc2ccc(F)cc2[nH]1 [Example 963, (R)-2-cyclopropyl-1-(4-(6-fluoro-1H-benzo[d]imidazol-2-yl)-6,7-dihydro-1H-imidazo[4,5-c]pyridin-5(4H)-yl)ethanone]	1 to 5

Next, values leading:

AC50 [µM]	Compound
1 to 5	CC(F)(F)c1ncoc1C(=O)N1CCc2[nH]cnc2[C@@H]1c1nc2c(F)cccc2s1 [Example 2008, (R)-(4-(1,1-difluoroethyl)oxazol-5-yl)(4-(4-fluorobenzo[d]thiazol-2-yl)-6,7-dihydro-1H-imidazo[4,5-c]pyridin-5(4H)-yl)methanone]
0.5 to 1	O=C(c1cnc(-c2ccc(C(F)(F)F)nc2)s1)N1CCc2[nH]cnc2[C@H]1c1nc2ccccc2s1 [Example 1356]
0.5 to 1	O=C(CCc1nccs1)N1CCc2[nH]cnc2[C@H]1c1nc2ccccc2[nH]1 [Example 900, (S)-1-(4-(1H-benzo[d]imidazol-2-yl)-6,7-dihydro-1H-imidazo[4,5-c]pyridin-5(4H)-yl)-3-(thiazol-2-yl)propan-1-one]
1 to 5	CC(C)(O)Cn1cc(C(=O)N2CCc3[nH]cnc3[C@H]2c2nc3c(F)cccc3s2)c(Cl)n1 [Example 1994]
< 0.5	Cn1nc(Cl)cc1C(=O)N1CCc2[nH]cnc2[C@H]1c1nc2c(F)cccc2s1 [Example 1721]
0.5 to 1	CC(C)(C)c1ncc(C(=O)N2CCc3[nH]cnc3[C@@H]2c2nc3c(F)cccc3s2)s1 [Example 1426, (R)-(2-(tert-butyl)thiazol-5-yl)(4-(4-fluorobenzo[d]thiazol-2-yl)-6,7-dihydro-1H-imidazo[4,5-c]pyridin-5(4H)-yl)methanone]
0.5 to 1	C[C@H](O)c1nc(C(F)F)c(C(=O)N2CCc3[nH]cnc3[C@@H]2c2nc3c(C(F)(F)F)cccc3s2)o1 [Example 2114, (4-(difluoromethyl)-2-((S)-1-hydroxyethyl)oxazol-5-yl)((R)-4-(4-(trifluoromethyl)benzo[d]thiazol-2-yl)-6,7-dihydro-1H-imidazo[4,5-c]pyridin-5(4H)-yl)methanone]
< 0.5	O=C(c1oc(OCCC(F)(F)F)nc1C(F)F)N1CCc2[nH]cnc2[C@@H]1c1nc2ccccc2s1 [Example 1771, (R)-(4-(benzo[d]thiazol-2-yl)-6,7-dihydro-1H-imidazo[4,5-c]pyridin-5(4H)-yl)(4-(difluoromethyl)-2-(3,3,3-trifluoropropoxy)oxazol-5-yl)methanone]
1 to 5	O=C(c1nnc(-c2ccc(C(F)(F)F)cn2)o1)N1CCc2[nH]cnc2[C@H]1c1nc2c(F)cccc2s1 [Example 1848, (S)-(4-(4-fluorobenzo[d]thiazol-2-yl)-6,7-dihydro-1H-imidazo[4,5-c]pyridin-5(4H)-yl)(5-(5-(trifluoromethyl)pyridin-2-yl)-1,3,4-oxadiazol-2-yl)methanone]
0.5 to 1	CN(C)Cc1nc(C(F)F)c(C(=O)N2CCc3[nH]cnc3[C@@H]2c2nc3ccccc3s2)o1 [Example 1782, (R)-(4-(benzo[d]thiazol-2-yl)-6,7-dihydro-1H-imidazo[4,5-c]pyridin-5(4H)-yl)(4-(difluoromethyl)-2-((dimethylamino)methyl)oxazol-5-yl)methanone]
< 0.5	O=C(c1nnc(-c2ccccn2)o1)N1CCc2[nH]cnc2[C@H]1c1nc2c(F)cccc2s1 [Example 1602, (S)-(4-(4-fluorobenzo[d]thiazol-2-yl)-6,7-dihydro-1H-imidazo[4,5-c]pyridin-5(4H)-yl)(5-(pyridin-2-yl)-1,3,4-oxadiazol-2-yl)methanone]
< 0.5	Cc1nn(C)cc1-c1ncc(C(=O)N2CCc3[nH]cnc3[C@H]2c2nc3ccccc3s2)o1 [Example 1381]
< 0.5	O=C(CCC1CC1)N1CCc2[nH]cnc2[C@H]1c1nc2ccc(Br)cc2s1 [Example 1145, (S)-1-(4-(6-bromobenzo[d]thiazol-2-yl)-6,7-dihydro-1H-imidazo[4,5-c]pyridin-5(4H)-yl)-3-cyclopropylpropan-1-one]

Same assay, conditions: A375 cells expressing human R408W PAH; 24 hrs with compound; 13C-Tyrosine by LC-MS; average where tested multiple times; read-out: AC50

Compound	AC50 [µM]
Cn1nc(COC(F)(F)F)cc1C(=O)N1CCc2[nH]cnc2C1c1nc2c(F)cccc2s1 (centres unmarked)	> 5
N#Cc1ccn2ncc(C(=O)N3CCc4[nH]cnc4C3c3nc4ccc(Br)cc4[nH]3)c2c1 (centres unmarked)	1 to 5
O=C(c1cnn2cccc(F)c12)N1CCc2[nH]cnc2C1c1nc2c(F)cccc2s1 (centres unmarked)	> 5

Results, then the compound that gave them:

AC50 [µM]	Compound
1 to 5	Cc1nnc(C(=O)N2CCc3[nH]cnc3C2c2nc3ccc(F)cc3s2)s1 (centres unmarked)
1 to 5	O=C(c1cnn2ccc(Cl)cc12)N1CCc2[nH]cnc2[C@H]1c1nc2ccccc2[nH]1 [(S)-(4-(1H-benzo[d]imidazol-2-yl)-6,7-dihydro-1H-imidazo[4,5-c]pyridin-5(4H)-yl)(5-chloropyrazolo[1,5-a]pyridin-3-yl)methanone]
> 5	O=C(CCc1ccc(F)cc1)N1CCc2[nH]cnc2C1c1nc2ccccc2[nH]1 (centres unmarked)
